# From patent publication US6632981B1, “DNA sequences encoding polypeptides having beta-1,3-glucanase activity” (Novartis Finance Corporation, priority 1988, dated 2003)
# How the values were obtained:
# [1] = test system: cucumber chitinase protein; assay: Cucumber chitinase ELISA in transgenic plants carrying cucumber chitinase genomic constructs after leaf treatment; format: in vivo, tobacco; design: key: —: Indicates that sample has no detectable level of chitinase protein
# Protocol: Once the transgenic plants are transferred to soil, they are grown 4-5 weeks before treatment. The following solutions are applied to the leaves with sterile paintbrushes:
# 3. Methyl benzo-1,2,3-thiadiazole-7-carboxylate. The solution is made by resuspending a wettable powder containing a formulation of the chemical with 25% active ingredient in sterile water at a concentration of 1 mg/ml.
# 4. Methyl 2,6-dichloroisonicotinate, prepared as above. Alternatively, 30 ul of 10 mM sodium phosphate buffer, pH 7.0, or 30 ul of the same buffer containing tobacco mosaic virus (50-100 pfu/30 ul) is applied to the leaves which have been sprinkled with carborundum. The buffers are distributed over the whole treated leaf by gentle rubbing.
# The plants are allowed to continue to grow for seven days. The treated leaves are then harvested, frozen in liquid nitrogen and stored at −80° C. until they are assayed.
# Frozen leaf tissue is ground in a mortar with a pestle in the presence of liquid nitrogen to produce a fine powder. 0.33 g of each tissue sample is added to 1 ml extraction buffer (50 mM Tris-HCl, pH 8.5, 0.2M 2-mercaptoethanol, 2 mM phenyl methyl sulfonyl fluoride, 2 mM benzamidine, 10 mM epsilon-aminocaproic acid, 1 mM leueptine) and the sample homogenized for one minute with an Ultra Turrax Mixer (shaft #S25N-8G, Tekmar Co. Cincinnati, Ohio). The samples are then centrifuged at 48,000×g for fifteen minutes at 4° C. and the supernatant removed from the pelleted material. The extracts are diluted at least 1:50 in ELISA diluent (101 mM sodium phosphate, pH 7.4, 140 mM sodium chloride, 0.05% Tween 20, 0.02% sodium azide, 1% BSA).
# A microtiter plate is coated with monoclonal antibody specific to the cucumber chitinase protein at 2 ug/ml in borate-buffered saline (100 mM boric acid, 25mM sodium borate, 75 mM sodium chloride; pH 8.5) using 50 ul per well. The plate is incubated overnight at 4° C. The plate is washed with ELISA wash buffer (10 mM Tris-HCl, pH 8.0, 0.05% Tween 20, 3 mM sodium azide) and BSA blocking solution (10 mM sodium phosphate, pH 7.4, 140 mM sodium chloride, 0.02% sodium azide, 1% BSA) is added to completely cover each well. Incubation is for at least 30 minutes at room temperature.
# The microtiter plate is washed with ELISA wash buffer and 50 ul of extract is added to the appropriate well. 50 ul of each of 10 chitinase protein standards (ranging from 0 ng/ml to 31.64 ng/ml) was also added to the appropriate well and the plate is incubated for two hours at 4° C. The plate is washed with ELISA wash buffer and 50 ul of rabbit polyclonal antibody to the cucumber chitainase protein (diluted 1:15,000 in ELISA diluent) is added to the well and incubated for one hour at 37° C. After washing with ELISA wash buffer, 50 ul of goat anti-rabbit conjugated to alkaline phosphatase (1:500 in ELISA diluent) is added to each well and incubated at 37° C. for one hour. The plate is then washed and 50 ul alkaline phosphatase substrate solution (0.6 mg/ml p-nitrophenyl phosphate in 0.5 mM magnesium chloride and 10% diethanolamine) is added to each well. After a 30 minute incubation at room temperature, 50 ul of 3N sodium hydroxide is added to each well to stop the reaction.
# The plate is read at 405 nm and 492 nm on an HP Genenchem ELISA plate reader. The output values are expressed as A(405 nm)-A(492 nm)−0.092 to allow for correction of p-nitrophenyl phosphate as substrate. The chitinase standards for each plate are graphed logarithmically. The amount of chitinase protein in each sample is determined from the standard curve. If the amount of chitinase in any sample is close to the upper limit of the curve, the sample is assayed again at a greater dilution. Final results are expressed in the table below in ug chitinase per gram tissue.
# [2] = test system: chemically regulatable chimeric genes coding for GUS, AHAS or BT; assay: Primer extension assay for mRNA of chemically regulatable chimeric genes; format: in vivo; conditions: callus or regenerated plant material from transgenic plants; level proportional to amount of regulator applied
# Protocol: 50 g of total RNA is lyophilized in a 500 l Eppendorf tube. The RNA is resuspended in 30 l of radiolabeled probe solution and heated to 70′ C. for 10 minutes. The tube is slowly cooled to 37° C. and allowed to incubate overnight. Without removing the tube from the 37° C. water bath, 2 l of 10×reverse-transcriptase buffer (500 mM Tris-HCl, pH 7.5, 400 mM KCl, 30 mM MgCl2), 1 l 5 mg/ml bovine serum albumin, 5 l 100 mM dithiothreitol, 5 l 10×dNTPs (10 mM of each dNTP in H2O), 3 l H 20, 2 l RNasin (80 units), and 2 l reverse transcriptase (400 units) are added and the reaction is incubated at 37° C. for 30 minutes. To stop the reaction, 5 l of 3 M sodium acetate, pH 5, and 150 l absolute ethanol are added. The tube is left at −20° C. for 30 minutes, the precipitate is collected by centrifugation, washed with 80% ethanol and allowed to air-dry. The precipitate is resuspended in 10-20 l of loading dye (90% formamide, 0.05% bromophenol blue, 0.05% xylene cyanol, 1 mM EDTA) and the extension products are separated on a 6% sequencing gel (Maniatis, T. et al., supra). Extension products are visualized by autoradiography.
# Plant materials induced and harvested as in Examples 140 to 142 are assayed for the induction of mRNA species by the isolation of RNA and the primer extension assay as described in Example 6.
# The level of mRNA is proportional to the amount of regulator applied.
smiles,measurement,setting,value
"COC(=O)c1cc(Cl)nc(Cl)c1 [MDCINA, Methyl 2,6-dichloroisonicotinate]",ELISA ASSAY RESULTS (ug chitinase/g tissue),"[1]; line Bam-1 (2001/BamChit), leaves harvested after seven days, water 0.066, buffer —",—
same,ELISA ASSAY RESULTS (ug chitinase/g tissue),"[1]; line Bam-3 (2001/BamChit), seven days, water —, buffer —",—
same,ELISA ASSAY RESULTS (ug chitinase/g tissue),"[1]; line Bam-4 (2001/BamChit), seven days, water —, buffer —",—
same,ELISA ASSAY RESULTS (ug chitinase/g tissue),"[1]; line Bam-8 (2001/BamChit), seven days, water —, buffer —",—
same,ELISA ASSAY RESULTS (ug chitinase/g tissue),"[1]; line Bam-9 (2001/BamChit), seven days, water —, buffer —",—
same,ELISA ASSAY RESULTS (ug chitinase/g tissue),"[1]; line Bam-10 (2001/BamChit), seven days, water 0.059, buffer 0.084",2.378 ug chitinase/g tissue
same,ELISA ASSAY RESULTS (ug chitinase/g tissue),"[1]; line Bam-12 (2001/BamChit), seven days, water —, buffer —",—
same,ELISA ASSAY RESULTS (ug chitinase/g tissue),"[1]; line Bam-14 (2001/BamChit), seven days, water —, buffer —",—
same,ELISA ASSAY RESULTS (ug chitinase/g tissue),"[1]; line Bam-15 (2001/BamChit), seven days, water —, buffer —",—
same,ELISA ASSAY RESULTS (ug chitinase/g tissue),"[1]; line Bam-16 (2001/BamChit), seven days, water —, buffer —",0.864 ug chitinase/g tissue
same,ELISA ASSAY RESULTS (ug chitinase/g tissue),"[1]; line Bam-17 (2001/BamChit), seven days, water —, buffer —",—
same,ELISA ASSAY RESULTS (ug chitinase/g tissue),"[1]; line Bam-19 (2001/BamChit), seven days, water —, buffer —",—
same,ELISA ASSAY RESULTS (ug chitinase/g tissue),"[1]; line Bam-21 (2001/BamChit), seven days, water —, buffer —",—
same,ELISA ASSAY RESULTS (ug chitinase/g tissue),"[1]; line Bam-23 (2001/BamChit), seven days, water —, buffer —",—
same,ELISA ASSAY RESULTS (ug chitinase/g tissue),"[1]; line Bam-24 (2001/BamChit), seven days, water —, buffer —",—
same,ELISA ASSAY RESULTS (ug chitinase/g tissue),"[1]; line Bam-25 (2001/BamChit), seven days, water —, buffer —",—
same,ELISA ASSAY RESULTS (ug chitinase/g tissue),"[1]; line Bam-26 (2001/BamChit), seven days, water —, buffer —",—
same,ELISA ASSAY RESULTS (ug chitinase/g tissue),"[1]; line Nco-2 (2001/NcoChit), seven days, water —, buffer —",—
same,ELISA ASSAY RESULTS (ug chitinase/g tissue),"[1]; line Nco-3 (2001/NcoChit), seven days, water —, buffer —",—
same,ELISA ASSAY RESULTS (ug chitinase/g tissue),"[1]; line Nco-5 (2001/NcoChit), seven days, water —, buffer —",—
same,ELISA ASSAY RESULTS (ug chitinase/g tissue),"[1]; line Nco-8 (2001/NcoChit), seven days, water —, buffer —",—
same,ELISA ASSAY RESULTS (ug chitinase/g tissue),"[1]; line Nco-9 (2001/NcoChit), seven days, water —, buffer —",—
same,ELISA ASSAY RESULTS (ug chitinase/g tissue),"[1]; line Nco-10 (2001/NcoChit), seven days, water —, buffer —",—
same,ELISA ASSAY RESULTS (ug chitinase/g tissue),"[1]; line Nco-11 (2001/NcoChit), seven days, water —, buffer —",—
same,ELISA ASSAY RESULTS (ug chitinase/g tissue),"[1]; line Nco-15 (2001/NcoChit), seven days, water —, buffer —",—
same,ELISA ASSAY RESULTS (ug chitinase/g tissue),"[1]; line Nco-16 (2001/NcoChit), seven days, water 0.555, buffer 0.566",0.286 ug chitinase/g tissue
same,ELISA ASSAY RESULTS (ug chitinase/g tissue),"[1]; line Nco-17 (2001/NcoChit), seven days, water —, buffer —",—
same,ELISA ASSAY RESULTS (ug chitinase/g tissue),"[1]; line Sal-2 (2001/SalChit), seven days, water —, buffer —",—
same,ELISA ASSAY RESULTS (ug chitinase/g tissue),"[1]; line Sal-3 (2001/SalChit), seven days, water —, buffer —",0.047 ug chitinase/g tissue
same,ELISA ASSAY RESULTS (ug chitinase/g tissue),"[1]; line Sal-4 (2001/SalChit), seven days, water —, buffer —",—
same,ELISA ASSAY RESULTS (ug chitinase/g tissue),"[1]; line Sal-5 (2001/SalChit), seven days, water —, buffer —",—
same,ELISA ASSAY RESULTS (ug chitinase/g tissue),"[1]; line Sal-7 (2001/SalChit), seven days, water —, buffer —",—
same,ELISA ASSAY RESULTS (ug chitinase/g tissue),"[1]; line Sal-8 (2001/SalChit), seven days, water —, buffer —",—
same,ELISA ASSAY RESULTS (ug chitinase/g tissue),"[1]; line Sal-9 (2001/SalChit), seven days, water —, buffer —",—
same,ELISA ASSAY RESULTS (ug chitinase/g tissue),"[1]; line Sal-11 (2001/SalChit), seven days, water —, buffer —",—
same,ELISA ASSAY RESULTS (ug chitinase/g tissue),"[1]; line Sal-12 (2001/SalChit), seven days, water —, buffer —",—
same,ELISA ASSAY RESULTS (ug chitinase/g tissue),"[1]; line Sal-13 (2001/SalChit), seven days, water —, buffer —",—
same,ELISA ASSAY RESULTS (ug chitinase/g tissue),"[1]; line Sal-14 (2001/SalChit), seven days, water —, buffer —",—
same,ELISA ASSAY RESULTS (ug chitinase/g tissue),"[1]; line Sal-15 (2001/SalChit), seven days, water —, buffer —",—
same,"level of mRNA of the chimeric gene (GUS, AHAS or BT primer), primer extension assay",[2],elevated levels of mRNA
